# From ChEMBL document CHEMBL1140860, “Synthesis and evaluation of dihydroartemisinin and dihydroartemisitene acetal dimers showing anticancer and antiprotozoal activity” (Bioorg Med Chem, 2009)
# pIC50: −log10 of the molar value.
# Experiments:
# [1] = Growth inhibition of human Hs 578T cells after 48 hrs by sulforhodamine B assay; assay type: functional
# [2] = tested on: IGROV-1; experiment: Growth inhibition of human IGROV1 cells after 48 hrs by sulforhodamine B assay; assay type: functional; settings: IGROV-1, 48 h
# [3] = tested on: MDA-N; experiment: Growth inhibition of human MDA-N cells after 48 hrs by sulforhodamine B assay; assay type: functional
# [4] = tested on: K562; experiment: Growth inhibition of human K562 cells after 48 hrs by sulforhodamine B assay; assay type: functional; settings: K562, 48 h
# [5] = tested on: CAKI-1; experiment: Growth inhibition of human Caki1 cells after 48 hrs by sulforhodamine B assay; assay type: functional; settings: CAKI-1, 48 h
# [6] = tested on: HOP-62; experiment: Growth inhibition of human HOP62 cells after 48 hrs by sulforhodamine B assay; assay type: functional; settings: HOP-62, 48 h
# [7] = tested on: SF-295; experiment: Growth inhibition of human SF295 cells after 48 hrs by sulforhodamine B assay; assay type: functional; settings: SF-295, 48 h
# [8] = tested on: UACC-257; experiment: Growth inhibition of human UACC257 cells after 48 hrs by sulforhodamine B assay; assay type: functional; settings: UACC-257, 48 h
# [9] = tested on: 786-0; experiment: Growth inhibition of human 786-0 cells after 48 hrs by sulforhodamine B assay; assay type: functional; settings: 786-0, 48 h
# [10] = tested on: DU-145; experiment: Growth inhibition of human DU145 cells after 48 hrs by sulforhodamine B assay; assay type: functional; settings: DU-145, 48 h
# [11] = tested on: HT-29; experiment: Growth inhibition of human HT-29 cells after 48 hrs by sulforhodamine B assay; assay type: functional; settings: HT-29, 48 h
# [12] = tested on: SF-539; experiment: Growth inhibition of human SF539 cells after 48 hrs by sulforhodamine B assay; assay type: functional; settings: SF-539, 48 h
# [13] = Selectivity index, ratio of TC50 for african green monkey (Cercopithecus aethiops) Vero cells to IC50 for chloroquine-sensitive Plasmodium falciparum D6; assay type: toxicity, cell-based
# [14] = tested on: OVCAR-5; experiment: Growth inhibition of human OVCAR5 cells after 48 hrs by sulforhodamine B assay; assay type: functional; settings: OVCAR-5, 48 h
# [15] = tested on: NCI-H322M; experiment: Growth inhibition of human NCI-H322M cells after 48 hrs by sulforhodamine B assay; assay type: functional
# [16] = tested on: OVCAR-4; experiment: Growth inhibition of human OVCAR4 cells after 48 hrs by sulforhodamine B assay; assay type: functional; settings: OVCAR-4, 48 h
# [17] = tested on: UO-31; experiment: Growth inhibition of human UO31 cells after 48 hrs by sulforhodamine B assay; assay type: functional; settings: UO-31, 48 h
# [18] = tested on: UACC-62; experiment: Growth inhibition of human UACC62 cells after 48 hrs by sulforhodamine B assay; assay type: functional; settings: UACC-62, 48 h
# [19] = tested on: ACHN; experiment: Growth inhibition of human ACHN cells after 48 hrs by sulforhodamine B assay; assay type: functional
# [20] = tested on: SNB-75; experiment: Growth inhibition of human SNB75 cells after 48 hrs by sulforhodamine B assay; assay type: functional; settings: SNB-75, 48 h
# [21] = tested on: NCI-H23; experiment: Growth inhibition of human NCI-H23 cells after 48 hrs by sulforhodamine B assay; assay type: functional; settings: NCI-H23, 48 h
# [22] = tested on: SK-MEL-2; experiment: Growth inhibition of human SK-MEL-2 cells after 48 hrs by sulforhodamine B assay; assay type: functional; settings: SK-MEL-2, 48 h
# [23] = tested on: TK-10; experiment: Growth inhibition of human TK10 cells after 48 hrs by sulforhodamine B assay; assay type: functional; settings: TK-10, 48 h
# [24] = tested on: MDA-MB-435; experiment: Growth inhibition of human MDA-MB-435 cells after 48 hrs by sulforhodamine B assay; assay type: functional; settings: MDA-MB-435, 48 h
# [25] = tested on: SR; experiment: Growth inhibition of human SR cells after 48 hrs by sulforhodamine B assay; assay type: functional
# [26] = tested on: NCI-H522; experiment: Growth inhibition of human NCI-H522 cells after 48 hrs by sulforhodamine B assay; assay type: functional; settings: NCI-H522, 48 h
# [27] = tested on: A549; experiment: Growth inhibition of human A549 cells after 48 hrs by sulforhodamine B assay; assay type: functional; settings: A549, 48 h
# [28] = tested on: Plasmodium falciparum; experiment: Antimalarial activity after 72 hrs against chloroquine-sensitive Plasmodium falciparum D6 infected in erythrocytes by LDH assay; assay type: functional, organism-based; settings: D6, 72 h
# [29] = tested on: SF-268; experiment: Growth inhibition of human SF268 cells after 48 hrs by sulforhodamine B assay; assay type: functional; settings: SF-268, 48 h
# [30] = tested on: BT-549; experiment: Growth inhibition of human BT549 cells after 48 hrs by sulforhodamine B assay; assay type: functional; settings: BT-549, 48 h
# [31] = tested on: PC-3; experiment: Growth inhibition of human PC3 cells after 48 hrs by sulforhodamine B assay; assay type: functional; settings: PC-3, 48 h
# [32] = tested on: MCF7; experiment: Growth inhibition of human MCF7 cells after 48 hrs by sulforhodamine B assay; assay type: functional; settings: MCF7, 48 h
# [33] = tested on: RXF 393; experiment: Growth inhibition of human RXF393 cells after 48 hrs by sulforhodamine B assay; assay type: functional; settings: RXF 393, 48 h
# [34] = tested on: HOP-92; experiment: Growth inhibition of human HOP92 cells after 48 hrs by sulforhodamine B assay; assay type: functional; settings: HOP-92, 48 h
# [35] = tested on: T47D; experiment: Growth inhibition of human T47D cells after 48 hrs by sulforhodamine B assay; assay type: functional
# [36] = tested on: M14; experiment: Growth inhibition of human M14 cells after 48 hrs by sulforhodamine B assay; assay type: functional; settings: M14, 48 h
# [37] = tested on: Malme-3M; experiment: Growth inhibition of human MALME-3M cells after 48 hrs by sulforhodamine B assay; assay type: functional
# [38] = tested on: KM12; experiment: Growth inhibition of human KM12 cells after 48 hrs by sulforhodamine B assay; assay type: functional; settings: KM12, 48 h
# [39] = tested on: A498; experiment: Growth inhibition of human A498 cells after 48 hrs by sulforhodamine B assay; assay type: functional; settings: A498, 48 h
# [40] = tested on: CCRF-CEM; experiment: Growth inhibition of human CCRF-CEM cells after 48 hrs by sulforhodamine B assay; assay type: functional
# [41] = tested on: OVCAR-8; experiment: Growth inhibition of human OVCAR8 cells after 48 hrs by sulforhodamine B assay; assay type: functional; settings: OVCAR-8, 48 h
# [42] = Cytotoxicity against african green monkey Vero cells after 48 hrs by neutral red assay; assay type: cell-based; settings: chlorocebus sabaeus, read-out: TC50
# [43] = tested on: HCC 2998; experiment: Growth inhibition of human HCC2998 cells after 48 hrs by sulforhodamine B assay; assay type: functional; settings: HCC 2998, 48 h
# [44] = tested on: COLO 205; experiment: Growth inhibition of human COLO205 cells after 48 hrs by sulforhodamine B assay; assay type: functional; settings: COLO 205, 48 h
# [45] = tested on: OVCAR-3; experiment: Growth inhibition of human OVCAR-3 cells after 48 hrs by sulforhodamine B assay; assay type: functional; settings: OVCAR-3, 48 h
# [46] = tested on: NCI-H460; experiment: Growth inhibition of human NCI-H460 cells after 48 hrs by sulforhodamine B assay; assay type: functional; settings: NCI-H460, 48 h
# [47] = tested on: SK-OV-3; experiment: Growth inhibition of human SKOV3 cells after 48 hrs by sulforhodamine B assay; assay type: functional; settings: SK-OV-3, 48 h
# [48] = tested on: NCI-H226; experiment: Growth inhibition of human NCI-H226 cells after 48 hrs by sulforhodamine B assay; assay type: functional; settings: NCI-H226, 48 h
# [49] = tested on: HCT-116; experiment: Growth inhibition of human HCT116 cells after 48 hrs by sulforhodamine B assay; assay type: functional; settings: HCT-116, 48 h
# [50] = tested on: Plasmodium falciparum; experiment: Antimalarial activity after 72 hrs against chloroquine-resistant Plasmodium falciparum W2 infected erythrocytes by LDH assay; assay type: functional, organism-based; settings: W2, 72 h
smiles,measurement,setting,value
C[C@H]1[C@@H](O[C@H]2CC[C@@H](O[C@H]3O[C@@H]4O[C@@]5(C)CC[C@H]6[C@H](C)CC[C@@H]([C@H]3C)[C@@]46OO5)CC2)O[C@@H]2O[C@@]3(C)CC[C@H]4[C@H](C)CC[C@@H]1[C@@]24OO3,GI50,[1],0.049 µM
same,GI50,[2],6.75 µM
same,GI50,[3],0.024 µM
same,GI50,[4],0.014 µM
same,GI50,[5],0.037 µM
same,GI50,[6],12.3 µM
same,GI50,[7],0.028 µM
same,GI50,[8],0.027 µM
same,GI50,[9],0.031 µM
same,GI50,[10],0.028 µM
same,GI50,[11],0.026 µM
same,GI50,[12],0.02 µM
same,selectivity ratio,[13],> 1590
same,GI50,[14],0.152 µM
same,GI50,[15],16.6 µM
same,GI50,[16],0.024 µM
same,GI50,[17],0.018 µM
same,GI50,[18],0.022 µM
same,GI50,[19],0.027 µM
same,GI50,[20],0.03 µM
same,GI50,[21],0.022 µM
same,GI50,[22],0.024 µM
same,GI50,[23],0.029 µM
same,GI50,[24],0.028 µM
same,GI50,[25],0.014 µM
same,GI50,[26],0.021 µM
same,GI50,[27],0.02 µM
same,pIC50,[28],5.34
same,GI50,[29],0.034 µM
same,GI50,[30],0.042 µM
same,GI50,[31],0.011 µM
same,GI50,[32],0.016 µM
same,GI50,[33],0.018 µM
same,GI50,[34],0.017 µM
same,GI50,[35],< 0.005 µM
same,GI50,[36],0.027 µM
same,GI50,[37],0.044 µM
same,GI50,[38],0.012 µM
same,GI50,[39],0.04 µM
same,GI50,[40],< 0.005 µM
same,GI50,[41],0.019 µM
same,CC50 at 48 h,[42],> 7340 µM
same,GI50,[43],0.018 µM
same,GI50,[44],0.007 µM
same,GI50,[45],0.015 µM
same,GI50,[46],0.017 µM
same,GI50,[47],0.034 µM
same,GI50,[48],0.347 µM
same,GI50,[49],0.016 µM
same,pIC50,[50],5.10
